The text below walks through data of ChEMBL document CHEMBL1909046, “DrugMatrix in vitro pharmacology data”.

Usually IC50 stands for the concentration at which inhibition is half-maximal. In general, Ki refers to the equilibrium dissociation constant of an inhibitor or competing ligand from its target.

The target in data set [1] is T1, Muscarinic acetylcholine receptor M2 (Homo sapiens, UniProt P08172).
T1 sequence (P08172 whole entry): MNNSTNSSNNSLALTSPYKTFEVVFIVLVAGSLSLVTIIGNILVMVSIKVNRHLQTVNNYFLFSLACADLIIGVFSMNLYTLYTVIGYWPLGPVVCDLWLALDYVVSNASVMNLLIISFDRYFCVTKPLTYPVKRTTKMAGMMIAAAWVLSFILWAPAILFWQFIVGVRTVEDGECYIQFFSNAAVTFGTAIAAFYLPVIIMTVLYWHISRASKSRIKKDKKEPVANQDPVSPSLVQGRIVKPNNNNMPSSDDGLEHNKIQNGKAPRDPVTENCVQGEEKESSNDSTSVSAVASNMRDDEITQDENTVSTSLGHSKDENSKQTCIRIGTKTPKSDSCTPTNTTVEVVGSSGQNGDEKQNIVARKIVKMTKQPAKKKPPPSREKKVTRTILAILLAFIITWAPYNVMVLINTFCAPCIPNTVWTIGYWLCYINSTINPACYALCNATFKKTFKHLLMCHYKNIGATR
In kind it is cell membranes, CHO-K1, Membrane. The conditions noted are these: cho-k1.

The target of data set [2] is T2, Leukotriene C4 synthase (Cavia porcellus, UniProt A6XA80).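 Also: enzyme inhibition assay of leukotriene C4 synthase, using LTA4 as the substrate.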
T2 sequence (A6XA80 whole entry): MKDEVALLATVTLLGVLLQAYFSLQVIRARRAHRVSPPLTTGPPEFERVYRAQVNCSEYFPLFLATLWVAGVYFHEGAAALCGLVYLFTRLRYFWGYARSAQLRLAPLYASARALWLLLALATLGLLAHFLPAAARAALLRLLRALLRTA
In kind it is tissue-based, Lung.

Data set [3] concerns the target 5-hydroxytryptamine receptor 6 (Homo sapiens, UniProt P50406). The class given is cell membranes, HeLa, Membrane.
For data set [4], the target named is T3, Endothelin-1 receptor (Homo sapiens, UniProt P25101).
T3 sequence (P25101 whole entry): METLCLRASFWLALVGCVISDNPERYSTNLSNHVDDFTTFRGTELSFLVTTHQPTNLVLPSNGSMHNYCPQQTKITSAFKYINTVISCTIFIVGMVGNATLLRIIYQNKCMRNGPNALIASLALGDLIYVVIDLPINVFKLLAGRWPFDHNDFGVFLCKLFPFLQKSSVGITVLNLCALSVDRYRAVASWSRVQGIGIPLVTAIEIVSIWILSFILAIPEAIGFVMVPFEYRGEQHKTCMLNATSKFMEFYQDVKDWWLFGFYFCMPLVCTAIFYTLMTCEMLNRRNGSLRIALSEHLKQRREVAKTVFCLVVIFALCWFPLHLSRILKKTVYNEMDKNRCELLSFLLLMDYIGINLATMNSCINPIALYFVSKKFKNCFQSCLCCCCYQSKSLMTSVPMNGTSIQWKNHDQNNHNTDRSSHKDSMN
In kind it is cell membranes, Membrane. The conditions noted are these: cho-k1.

Data set [5] has as its target T4, Neuropeptide Y receptor type 1 (Homo sapiens, UniProt P25929).
T4 sequence (P25929 whole entry): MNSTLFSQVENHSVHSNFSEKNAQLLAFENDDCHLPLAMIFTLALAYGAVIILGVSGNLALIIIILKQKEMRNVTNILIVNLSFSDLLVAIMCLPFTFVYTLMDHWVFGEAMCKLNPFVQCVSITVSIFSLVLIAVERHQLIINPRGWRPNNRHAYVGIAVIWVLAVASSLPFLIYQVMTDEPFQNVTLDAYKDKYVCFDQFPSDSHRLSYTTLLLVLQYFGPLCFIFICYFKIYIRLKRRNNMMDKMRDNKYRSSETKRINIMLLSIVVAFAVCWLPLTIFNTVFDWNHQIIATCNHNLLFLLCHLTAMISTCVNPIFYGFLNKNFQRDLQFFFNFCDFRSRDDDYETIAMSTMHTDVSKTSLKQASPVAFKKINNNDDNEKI
The class given is cell membranes, Membrane. The conditions noted are these: sk-n-mc.

Data set [6] concerns the target Cytochrome P450 2C19 (Homo sapiens, UniProt P33261). The note with it: bti-tn-5b1-4.
Data set [7] concerns the target Glycine receptor (Rattus norvegicus, UniProt P22771+P24524+P07727+P20781). The class given is cell membranes, Wistar, Spinal cord, Membrane.
For data set [8], the target named is T5, Caspase-1 (Homo sapiens, UniProt P29466).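 Also: Caspase-1 enzyme inhibition assay with a peptide substrate.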
T5 sequence (P29466 whole entry): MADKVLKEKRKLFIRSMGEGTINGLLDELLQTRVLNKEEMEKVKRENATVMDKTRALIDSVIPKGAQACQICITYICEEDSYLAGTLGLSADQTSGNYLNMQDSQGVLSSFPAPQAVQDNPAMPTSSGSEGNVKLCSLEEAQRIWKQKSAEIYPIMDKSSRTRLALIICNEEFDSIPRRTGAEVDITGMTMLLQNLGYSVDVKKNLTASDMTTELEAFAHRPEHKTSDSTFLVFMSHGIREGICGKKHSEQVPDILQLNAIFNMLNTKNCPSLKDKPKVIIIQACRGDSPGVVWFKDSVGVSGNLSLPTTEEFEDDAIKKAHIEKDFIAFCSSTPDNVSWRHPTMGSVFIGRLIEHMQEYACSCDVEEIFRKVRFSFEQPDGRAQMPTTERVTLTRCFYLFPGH
Set-up: species or system Escherichia coli.
Also: in other assays of this panel Not Active means under 50% inhibition at 10 µM.

Sequence of 5-hydroxytryptamine receptor 6 (P50406 whole entry): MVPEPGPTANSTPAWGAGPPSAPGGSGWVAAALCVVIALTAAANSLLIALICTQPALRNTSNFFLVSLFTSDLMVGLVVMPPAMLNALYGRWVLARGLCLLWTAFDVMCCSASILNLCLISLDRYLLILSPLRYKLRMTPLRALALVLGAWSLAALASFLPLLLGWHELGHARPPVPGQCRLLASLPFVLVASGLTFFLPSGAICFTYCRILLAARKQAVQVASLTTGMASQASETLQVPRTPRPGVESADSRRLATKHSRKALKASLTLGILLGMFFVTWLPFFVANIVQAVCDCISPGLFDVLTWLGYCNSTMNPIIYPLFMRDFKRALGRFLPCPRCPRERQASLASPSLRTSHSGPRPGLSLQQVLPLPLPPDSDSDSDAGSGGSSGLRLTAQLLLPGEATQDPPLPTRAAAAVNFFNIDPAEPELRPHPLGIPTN
Sequence of Cytochrome P450 2C19 (P33261 whole entry): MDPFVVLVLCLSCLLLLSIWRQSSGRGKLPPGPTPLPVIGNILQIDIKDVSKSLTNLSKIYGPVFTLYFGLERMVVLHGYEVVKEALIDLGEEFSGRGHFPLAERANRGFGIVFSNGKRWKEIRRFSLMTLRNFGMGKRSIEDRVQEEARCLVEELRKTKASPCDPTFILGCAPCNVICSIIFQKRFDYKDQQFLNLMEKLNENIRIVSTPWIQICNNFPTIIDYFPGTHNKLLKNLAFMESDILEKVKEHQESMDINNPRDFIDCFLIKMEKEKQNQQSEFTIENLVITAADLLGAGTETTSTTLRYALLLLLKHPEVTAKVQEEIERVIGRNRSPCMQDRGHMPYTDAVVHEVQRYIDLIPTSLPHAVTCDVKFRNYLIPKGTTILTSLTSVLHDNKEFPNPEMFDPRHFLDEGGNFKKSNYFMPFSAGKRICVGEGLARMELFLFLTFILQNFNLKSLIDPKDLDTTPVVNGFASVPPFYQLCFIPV

Consider `CC(C)Cc1ccc([C@@H](C)C(=O)O)cc1` [(R)-IBUPROPHEN], for which the IC50 result in data set [1], in data set [2], in data set [3] (hela), in data set [4], in data set [5] and in data set [6] was “Not Active” throughout. Also, the IC50 entry in data set [7] and in data set [8] was “Not Active” in each case. In addition, in data set [6], the Ki entry is reported as “Not Active”.
With `CC(C)NCC(O)c1ccc(O)c(O)c1` (centres undefined) [ISOPROTERENOL], the IC50 entry in data set [1], in data set [2], in data set [3] (hela), in data set [4], in data set [5] and in data set [6] was “Not Active” each time. The IC50 result in data set [7] and in data set [8] was “Not Active” throughout. The Ki result in data set [6] is recorded as “Not Active”.
Regarding `NC(=O)N1C(=O)/C(=C(\O)c2cccs2)c2cc(Cl)ccc21` [TENIDAP], the IC50 entry in data set [1], in data set [2], in data set [3] (hela), in data set [4], in data set [5] and in data set [6] was “Not Active” each time. The half-inhibitory concentration (IC50) result in data set [7] and in data set [8] was “Not Active” in each case. In data set [6], the inhibition constant Ki entry is recorded as “Not Active”.
For the compound `NC1CCN(c2nc3c(cc2F)c(=O)c(C(=O)O)cn3-c2ccc(F)cc2F)C1` (centres undefined) [TOSUFLOXACIN], the IC50 entry in data set [1], in data set [2], in data set [3] (hela), in data set [4], in data set [5] and in data set [6] was “Not Active” throughout. For the same compound, the half-maximal inhibitory concentration (IC50) entry in data set [7] and in data set [8] was “Not Active” each time. Besides, in data set [6], the Ki result is listed as “Not Active”.
Regarding `N#Cc1ccc(C(c2ccc(C#N)cc2)n2cncn2)cc1` [LETROZOLE], the IC50 result in data set [1], in data set [2], in data set [3] (hela), in data set [4], in data set [5] and in data set [6] was “Not Active” each time. For the same compound, the IC50 result in data set [7] and in data set [8] was “Not Active” each time. Also, in data set [6], the Ki result is reported as “Not Active”.
Consider `O=C(Nc1ccc(Br)cc1)c1cc(Br)cc(Br)c1O` [TRIBROMSALAN], for which the IC50 result in data set [1], in data set [2], in data set [3] (hela), in data set [4], in data set [5] and in data set [6] was “Not Active” in each case. Further, the IC50 result in data set [7] and in data set [8] was “Not Active” in each case. Further, the Ki entry in data set [6] was “Not Active”.
With `O=C1Nc2ccc(Cl)cc2C(c2ccccc2Cl)=NC1O` (centres undefined) [LORAZEPAM], the IC50 result in data set [1], in data set [2], in data set [3] (hela), in data set [4], in data set [5] and in data set [6] was “Not Active” each time. Further, the IC50 result in data set [7] and in data set [8] was “Not Active” each time. Further, the Ki entry in data set [6] is reported as “Not Active”.
Take `CC(C)Oc1ccc2c(=O)c(-c3ccccc3)coc2c1` [IPRIFLAVONE]: the 50% inhibitory concentration (IC50) entry in data set [1], in data set [2], in data set [3] (hela), in data set [4], in data set [5] and in data set [6] was “Not Active” each time. In addition, the IC50 result in data set [7] and in data set [8] was “Not Active” in each case. The Ki entry in data set [6] is recorded as “Not Active”.
Consider `CNC1(c2ccccc2Cl)CCCCC1=O` (centres undefined) [KETAMINE], for which the IC50 result in data set [1], in data set [2], in data set [3] (hela), in data set [4], in data set [5] and in data set [6] was “Not Active” in each case. Also, the IC50 entry in data set [7] and in data set [8] was “Not Active” throughout. Besides, the Ki entry in data set [6] is given as “Not Active”.
For the compound `O=C(O)c1cn(-c2ccc(F)cc2)c2cc(N3CCNCC3)c(F)cc2c1=O` [SARAFLOXACIN], the 50% inhibitory concentration (IC50) entry in data set [1], in data set [2], in data set [3] (hela), in data set [4], in data set [5] and in data set [6] was “Not Active” in each case. For the same compound, the 50% inhibitory concentration (IC50) entry in data set [7] and in data set [8] was “Not Active” throughout. The Ki entry in data set [6] is on record as “Not Active”.
SODIUM ORTHOVANAD: the IC50 entry in data set [1], in data set [2], in data set [3] (hela), in data set [4], in data set [5] and in data set [6] was “Not Active” throughout. The IC50 result in data set [7] and in data set [8] was “Not Active” each time. The Ki result in data set [1], in data set [2], in data set [3] (hela), in data set [4], in data set [5] and in data set [6] was “Not Active” throughout. Besides, the Ki entry in data set [7] and in data set [8] was “Not Active” each time.
On to `Cn1c(=O)c2nc[nH]c2n(C)c1=O.O` [THEOPHYLLINE], for which the IC50 entry in data set [1], in data set [2], in data set [3] (hela), in data set [4], in data set [5] and in data set [6] was “Not Active” in each case. The half-inhibitory concentration (IC50) result in data set [7] and in data set [8] was “Not Active” each time. The Ki entry in data set [6] is recorded as “Not Active”.
In the case of `CO[C@@H]1[C@@H](OC)[C@H](C)[C@@](O)(CC(=O)O)O[C@H]1[C@H](C)[C@H]1O[C@@]2(CC[C@@](C)([C@H]3CC[C@@](C)([C@@H]4O[C@@H]([C@H]5O[C@](C)(O)[C@H](C)C[C@@H]5C)C[C@@H]4O[C@@H]4C[C@H](OC)[C@@H](OC)[C@H](C)O4)O3)O2)C[C@H](O)[C@H]1C` [MADURAMICIN ACID], the 50% inhibitory concentration (IC50) result in data set [1] is “Not Active”; in data set [2] it was “Not Active”; in data set [3] (read-out: IC50), 1.7 nM; in data set [4] it was “Not Active”; in data set [5], “Not Active”; in data set [6], “Not Active”. Moreover, the IC50 result in data set [7] and in data set [8] was “Not Active” in each case. The Ki in data set [3] (read-out: Ki) was 0.789 nM; in data set [6], “Not Active”.
With `CN(C/C=C/C#CC(C)(C)C)Cc1cccc2ccccc12` [TERBINAFINE], the IC50 entry in data set [1], in data set [2], in data set [3] (hela), in data set [4], in data set [5] and in data set [6] was “Not Active” throughout. Besides, the IC50 entry in data set [7] and in data set [8] was “Not Active” in each case. For the same compound, the Ki entry in data set [6] was “Not Active”.
